Patent US8569344B2, “N-piperidinyl acetamide derivatives as calcium channel blockers” (Zalicus Pharmaceuticals Ltd., priority 2008, dated 2013)
Like-named read-outs stand apart in the source and are kept apart here.

Legend:
[1] = target: T1, human α1H T-type channels (Homo sapiens, UniProt O95180); assay: T-type calcium channel block, whole cell patch clamp in HEK cells (α1H); type: cell-based
T1 construct: expressed in transfected cells; host or cells: HEK 293

[2] = target: T2, human α1G T-type channels (Homo sapiens, UniProt O43497); assay: T-type calcium channel block, whole cell patch clamp in HEK cells (α1G); type: cell-based
T2 construct: expressed in transfected cells; host or cells: HEK 293

[3] = HEK cells, patch clamp, mainly non-inactivated protocol, values above 10 μM shown as 10 μM, read-out: T-type Calcium Channel Block α1H IC50
[4] = HEK cells, patch clamp, mainly non-inactivated protocol, values above 10 μM shown as 10 μM, below 0.30 μM shown as 0.30 μM, read-out: T-type Calcium Channel Block α1G IC50

T2 sequence (O43497 whole entry): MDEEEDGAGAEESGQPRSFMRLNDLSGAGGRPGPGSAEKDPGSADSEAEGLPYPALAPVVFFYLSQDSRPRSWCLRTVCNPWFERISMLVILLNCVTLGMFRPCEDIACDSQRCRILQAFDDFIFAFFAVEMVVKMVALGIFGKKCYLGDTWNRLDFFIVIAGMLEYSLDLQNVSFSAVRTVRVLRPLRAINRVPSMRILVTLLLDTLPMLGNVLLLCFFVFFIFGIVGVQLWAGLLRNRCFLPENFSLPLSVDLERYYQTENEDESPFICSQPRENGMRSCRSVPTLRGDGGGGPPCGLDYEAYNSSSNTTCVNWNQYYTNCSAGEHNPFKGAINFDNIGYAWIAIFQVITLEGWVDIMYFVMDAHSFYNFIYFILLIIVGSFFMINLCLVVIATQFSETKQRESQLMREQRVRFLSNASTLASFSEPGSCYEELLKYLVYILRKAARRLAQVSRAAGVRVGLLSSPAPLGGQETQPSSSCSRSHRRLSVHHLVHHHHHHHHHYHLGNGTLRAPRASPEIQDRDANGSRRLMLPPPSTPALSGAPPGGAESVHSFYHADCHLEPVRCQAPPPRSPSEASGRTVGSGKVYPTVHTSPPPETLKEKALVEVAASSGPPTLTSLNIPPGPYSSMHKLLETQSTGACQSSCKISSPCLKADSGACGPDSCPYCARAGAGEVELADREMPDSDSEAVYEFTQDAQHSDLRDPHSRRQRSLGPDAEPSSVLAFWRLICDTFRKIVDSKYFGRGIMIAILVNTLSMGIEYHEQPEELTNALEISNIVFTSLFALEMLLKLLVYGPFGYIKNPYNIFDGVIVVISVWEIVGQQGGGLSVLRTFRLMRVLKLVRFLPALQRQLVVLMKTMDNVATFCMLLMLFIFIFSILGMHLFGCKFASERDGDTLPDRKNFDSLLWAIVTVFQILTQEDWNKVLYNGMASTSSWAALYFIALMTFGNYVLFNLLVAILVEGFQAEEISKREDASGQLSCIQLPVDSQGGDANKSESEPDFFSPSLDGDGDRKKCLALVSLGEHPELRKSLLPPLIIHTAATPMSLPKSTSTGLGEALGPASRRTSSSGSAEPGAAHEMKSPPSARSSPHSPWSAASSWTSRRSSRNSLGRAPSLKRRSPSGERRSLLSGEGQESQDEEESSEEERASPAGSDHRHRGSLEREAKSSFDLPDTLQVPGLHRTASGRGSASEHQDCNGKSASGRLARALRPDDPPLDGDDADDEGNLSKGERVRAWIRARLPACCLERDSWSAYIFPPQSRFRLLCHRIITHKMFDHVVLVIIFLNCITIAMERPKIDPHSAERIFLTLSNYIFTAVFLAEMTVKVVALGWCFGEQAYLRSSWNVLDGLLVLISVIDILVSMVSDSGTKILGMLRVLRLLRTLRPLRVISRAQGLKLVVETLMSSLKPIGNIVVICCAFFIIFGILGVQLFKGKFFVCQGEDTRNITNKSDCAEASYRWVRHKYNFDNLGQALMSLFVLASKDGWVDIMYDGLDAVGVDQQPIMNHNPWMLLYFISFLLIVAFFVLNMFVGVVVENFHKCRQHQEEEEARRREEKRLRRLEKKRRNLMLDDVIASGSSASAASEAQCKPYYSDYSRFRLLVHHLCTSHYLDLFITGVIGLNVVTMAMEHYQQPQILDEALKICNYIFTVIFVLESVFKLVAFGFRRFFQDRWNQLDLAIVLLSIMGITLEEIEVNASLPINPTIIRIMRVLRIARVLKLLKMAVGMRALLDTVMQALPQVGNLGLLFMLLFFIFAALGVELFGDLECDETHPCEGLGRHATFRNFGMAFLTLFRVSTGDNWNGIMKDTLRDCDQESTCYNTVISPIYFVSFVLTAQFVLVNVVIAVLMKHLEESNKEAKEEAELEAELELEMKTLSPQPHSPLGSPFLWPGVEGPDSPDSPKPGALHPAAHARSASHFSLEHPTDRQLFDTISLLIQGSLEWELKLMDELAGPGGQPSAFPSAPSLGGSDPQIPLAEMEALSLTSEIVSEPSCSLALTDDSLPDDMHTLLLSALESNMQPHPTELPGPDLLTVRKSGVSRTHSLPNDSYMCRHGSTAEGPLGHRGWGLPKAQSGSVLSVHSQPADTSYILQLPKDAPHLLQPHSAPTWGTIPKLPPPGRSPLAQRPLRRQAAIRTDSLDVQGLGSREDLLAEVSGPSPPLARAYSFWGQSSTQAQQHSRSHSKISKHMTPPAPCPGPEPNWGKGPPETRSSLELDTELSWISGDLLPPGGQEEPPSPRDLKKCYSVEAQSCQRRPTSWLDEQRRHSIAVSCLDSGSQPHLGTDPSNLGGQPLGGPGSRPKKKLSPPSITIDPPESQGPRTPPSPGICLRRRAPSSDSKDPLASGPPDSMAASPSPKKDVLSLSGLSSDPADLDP
T1 sequence (O95180 whole entry): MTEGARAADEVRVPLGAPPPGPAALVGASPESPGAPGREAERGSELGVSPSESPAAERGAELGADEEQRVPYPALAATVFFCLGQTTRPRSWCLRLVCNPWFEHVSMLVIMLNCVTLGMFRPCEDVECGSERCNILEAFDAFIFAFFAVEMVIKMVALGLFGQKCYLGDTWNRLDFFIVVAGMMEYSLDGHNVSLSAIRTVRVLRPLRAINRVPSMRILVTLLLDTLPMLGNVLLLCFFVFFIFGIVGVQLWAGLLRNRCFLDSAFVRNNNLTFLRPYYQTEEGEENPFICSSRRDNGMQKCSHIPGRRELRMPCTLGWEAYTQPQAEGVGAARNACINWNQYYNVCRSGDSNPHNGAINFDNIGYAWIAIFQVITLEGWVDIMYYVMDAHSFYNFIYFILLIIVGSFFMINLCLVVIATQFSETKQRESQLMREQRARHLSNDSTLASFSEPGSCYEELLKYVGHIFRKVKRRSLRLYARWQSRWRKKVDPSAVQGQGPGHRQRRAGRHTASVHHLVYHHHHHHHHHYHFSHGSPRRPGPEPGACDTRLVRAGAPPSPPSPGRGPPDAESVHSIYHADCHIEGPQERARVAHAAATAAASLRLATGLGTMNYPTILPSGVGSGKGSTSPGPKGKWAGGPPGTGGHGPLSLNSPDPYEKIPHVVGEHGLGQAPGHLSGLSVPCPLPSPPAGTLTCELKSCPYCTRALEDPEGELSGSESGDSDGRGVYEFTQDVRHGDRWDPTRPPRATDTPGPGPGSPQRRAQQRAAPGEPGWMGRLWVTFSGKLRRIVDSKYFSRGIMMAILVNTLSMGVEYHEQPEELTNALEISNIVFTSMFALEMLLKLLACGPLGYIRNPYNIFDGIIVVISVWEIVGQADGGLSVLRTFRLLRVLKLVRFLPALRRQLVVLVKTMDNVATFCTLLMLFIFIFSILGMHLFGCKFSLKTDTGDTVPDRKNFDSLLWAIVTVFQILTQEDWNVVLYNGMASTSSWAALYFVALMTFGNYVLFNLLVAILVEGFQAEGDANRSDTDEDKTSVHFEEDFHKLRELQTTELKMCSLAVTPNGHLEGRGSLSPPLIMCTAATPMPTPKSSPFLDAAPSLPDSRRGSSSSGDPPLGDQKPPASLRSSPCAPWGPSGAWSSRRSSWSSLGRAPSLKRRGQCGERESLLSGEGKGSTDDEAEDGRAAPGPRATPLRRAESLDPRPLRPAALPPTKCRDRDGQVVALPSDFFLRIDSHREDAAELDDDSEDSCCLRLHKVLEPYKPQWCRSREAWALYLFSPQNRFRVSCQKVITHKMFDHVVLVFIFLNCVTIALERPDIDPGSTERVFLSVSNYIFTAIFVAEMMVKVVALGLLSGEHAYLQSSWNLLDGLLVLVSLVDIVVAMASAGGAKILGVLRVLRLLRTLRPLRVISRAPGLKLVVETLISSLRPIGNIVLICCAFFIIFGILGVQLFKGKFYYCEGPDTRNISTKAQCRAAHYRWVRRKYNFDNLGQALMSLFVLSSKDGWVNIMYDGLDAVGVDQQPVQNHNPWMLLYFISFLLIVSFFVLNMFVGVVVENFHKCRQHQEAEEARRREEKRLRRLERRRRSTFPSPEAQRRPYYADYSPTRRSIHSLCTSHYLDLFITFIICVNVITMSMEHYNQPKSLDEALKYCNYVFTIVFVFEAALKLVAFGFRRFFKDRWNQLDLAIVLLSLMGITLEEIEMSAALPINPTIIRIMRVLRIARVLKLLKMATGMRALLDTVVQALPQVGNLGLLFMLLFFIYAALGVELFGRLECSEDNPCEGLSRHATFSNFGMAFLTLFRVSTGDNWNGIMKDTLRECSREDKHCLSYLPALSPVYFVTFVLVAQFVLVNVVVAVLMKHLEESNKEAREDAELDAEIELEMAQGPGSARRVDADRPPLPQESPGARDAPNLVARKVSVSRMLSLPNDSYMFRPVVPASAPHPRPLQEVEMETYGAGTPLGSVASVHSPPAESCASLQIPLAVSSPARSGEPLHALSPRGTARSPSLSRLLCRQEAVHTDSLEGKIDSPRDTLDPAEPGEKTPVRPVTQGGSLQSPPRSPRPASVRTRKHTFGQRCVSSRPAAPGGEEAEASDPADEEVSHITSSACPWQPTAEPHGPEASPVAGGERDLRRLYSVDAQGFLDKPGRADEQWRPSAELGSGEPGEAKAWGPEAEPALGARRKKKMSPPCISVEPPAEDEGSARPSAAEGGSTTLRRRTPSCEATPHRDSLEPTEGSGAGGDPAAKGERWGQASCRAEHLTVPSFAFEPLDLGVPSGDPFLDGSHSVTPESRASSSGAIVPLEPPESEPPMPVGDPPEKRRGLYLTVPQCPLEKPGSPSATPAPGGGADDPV

SMILES: CN(CCN1CCC(CNC(=O)c2cc(F)cc(C(F)(F)F)c2)CC1)C(=O)C1(C)CC1 [Compound 518, N-((1-(2-(N,1-dimethylcyclopropanecarboxamido)ethyl)piperidin-4-yl)methyl)-3-fluoro-5-(trifluoromethyl)benzamide]
- IC50 [1, 3]: 0.81 µM
- IC50 [2, 4]: 1.31 µM

SMILES: CC1CCC(C(=O)N(C)CCN2CCC(CNC(=O)c3cc(F)cc(C(F)(F)F)c3)CC2)CC1 (stereo not shown) [Compound 519, N-((1-(2-(N,4-dimethylcyclohexanecarboxamido)ethyl)piperidin-4-yl)methyl)-3-fluoro-5-(trifluoromethyl)benzamide]
- IC50 [1, 3]: 0.24 µM
- IC50 [2, 4]: < 0.3 µM

SMILES: CN(CCN1CCC(CNC(=O)c2cc(F)cc(C(F)(F)F)c2)CC1)C(=O)C1(C(F)(F)F)CC1 [Compound 520, 3-fluoro-N-((1-(2-(N-methyl-1-(trifluoromethyl)cyclopropanecarbox-amido)ethyl)piperidin-4-yl)methyl)-5-(trifluoromethyl)benzamide]
- IC50 [1, 3]: 0.19 µM
- IC50 [2, 4]: < 0.3 µM

SMILES: CN(CCN1CCC(CNC(=O)c2cc(F)cc(C(F)(F)F)c2)CC1)C(=O)C1(C(F)(F)F)CCCC1 [Compound 522, 3-fluoro-N-((1-(2-(N-methyl-1-(trifluoromethyl)cyclopentanecarbox-amido)ethyl)piperidin-4-yl)methyl)-5-(trifluoromethyl)benzamide]
- IC50 [1, 3]: 0.14 µM
- IC50 [2, 4]: < 0.3 µM

SMILES: CN(CCN1CCC(CNC(=O)c2cc(F)cc(C(F)(F)F)c2)CC1)C(=O)NC(C)(C)C [Compound 523, N-((1-(2-(3-tert-butyl-1-methylureido)ethyl)piperidin-4-yl)methyl)-3-fluoro-5-(trifluoromethyl) benzamide]
- IC50 [1, 3]: 0.91 µM
- IC50 [2, 4]: 5.74 µM

SMILES: CCNC(=O)N(C)CCN1CCC(CNC(=O)c2cc(F)cc(C(F)(F)F)c2)CC1 [Compound 524, N-((1-(2-(3-ethyl-1-methylureido)ethyl)piperidin-4-yl)methyl)-3-fluoro-5-(trifluoromethyl) benzamide]
- IC50 [1, 3]: > 10 µM
- IC50 [2, 4]: > 10 µM

SMILES: CN(CCN1CCC(CNC(=O)c2cc(F)cc(C(F)(F)F)c2)CC1)C(=O)NC1CCCCC1 [Compound 525, N-((1-(2-(3-cyclohexyl-1-methylureido)ethyl)piperidin-4-yl)methyl)-3-fluoro-5-(trifluoromethyl) benzamide]
- IC50 [1, 3]: 0.77 µM
- IC50 [2, 4]: 2.36 µM

SMILES: CCCNC(=O)N(C)CCN1CCC(CNC(=O)c2cc(F)cc(C(F)(F)F)c2)CC1 [Compound 526, 3-fluoro-N-((1-(2-(1-methyl-3-propylureido)ethyl)piperidin-4-yl)methyl)-5-(trifluoromethyl)benzamide]
- IC50 [1, 3]: 3.24 µM
- IC50 [2, 4]: > 10 µM

SMILES: O=C(CN1CCC(CNC(=O)c2cccc(Cl)c2)CC1)NN1CCCCC1 [Compound 527, 3-chloro-N-((1-(2-oxo-2-(piperidin-1-ylamino)ethyl)piperidin-4-yl)methyl)benzamide]
- IC50 [1, 3]: 2.84 µM
- IC50 [2, 4]: 2.65 µM

SMILES: CC1(NC(=O)CN2CCC(CNC(=O)c3ccccc3)CC2)CCC1 [Compound 528, N-((1-(2-(1-methylcyclobutylamino)-2-oxoethyl)piperidin-4-yl)methyl) benzamide]
- IC50 [1, 3]: 8.54 µM
- IC50 [2, 4]: > 10 µM

SMILES: CC1(NC(=O)CN2CCC(CNC(=O)c3ccc(F)cc3)CC2)CCC1 [Compound 529, 4-fluoro-N-((1-(2-(1-methylcyclobutyl-amino)-2-oxoethyl)piperidin-4-yl)methyl)benzamide]
- IC50 [1, 3]: 2.51 µM
- IC50 [2, 4]: 5.44 µM

SMILES: O=C(NC1CCCCC1)OCCN1CCC(CNC(=O)c2cc(F)cc(C(F)(F)F)c2)CC1 [Compound 530, 2-(4-((3-fluoro-5-(trifluoromethyl)benzamido)methyl)piperidin-1-yl)ethyl cyclohexylcarbamate]
- IC50 [1, 3]: 0.86 µM
- IC50 [2, 4]: 0.59 µM

SMILES: COc1cc(F)cc(C(=O)NCC2CCN(CC(=O)NC3CCCC3)CC2)c1 [Compound 532, N-((1-(2-(cyclopentylamino)-2-oxoethyl)piperidin-4-yl)methyl)-3-fluoro-5-methoxybenzamide]
- IC50 [1, 3]: 0.13 µM
- IC50 [2, 4]: < 0.3 µM

SMILES: Cc1cc(F)cc(C(=O)NCC2CCN(CC(=O)NC3CCCC3)CC2)c1 [Compound 533, N-((1-(2-(cyclopentylamino)-2-oxoethyl)piperidin-4-yl)methyl)-3-fluoro-5-methylbenzamide]
- IC50 [1, 3]: 0.4 µM
- IC50 [2, 4]: 0.43 µM

SMILES: O=C(CN1CCC(CNC(=O)c2cccc(Cl)c2)CC1)NC1CCCC1 [Compound 534, 3-chloro-N-((1-(2-(cyclopentylamino)-2-oxoethyl)piperidin-4-yl)methyl) benzamide]
- IC50 [1, 3]: 0.42 µM
- IC50 [2, 4]: 0.38 µM

SMILES: O=C(CN1CCC(CNC(=O)c2cccc(F)c2)CC1)NC1CCCC1 [Compound 535, N-((1-(2-(cyclopentylamino)-2-oxoethyl)piperidin-4-yl)methyl)-3-fluorobenzamide]
- IC50 [1, 3]: 2.14 µM
- IC50 [2, 4]: 3.62 µM

SMILES: O=C(CN1CCC(CNC(=O)c2cccc(OC(F)(F)F)c2)CC1)NC1CCCC1 [Compound 536, N-((1-(2-(cyclopentylamino)-2-oxoethyl)piperidin-4-yl)methyl)-3-(trifluoromethoxy)benzamide]
- IC50 [1, 3]: 0.12 µM
- IC50 [2, 4]: < 0.3 µM

SMILES: Cc1cc(C)cc(C(=O)NCC2CCN(CC(=O)N(C)C(C)(C)C)CC2)c1 [Compound 539, N-((1-(2-(tert-butyl(methyl)amino)-2-oxoethyl)piperidin-4-yl)methyl)-3,5-dimethylbenzamide]
- IC50 [1, 3]: 0.51 µM
- IC50 [2, 4]: 1.68 µM

SMILES: Cc1cc(F)cc(C(=O)NCC2CCN(CC(=O)N(C)C(C)(C)C)CC2)c1 [Compound 540, N-((1-(2-(tert-butyl(methyl)amino)-2-oxoethyl)piperidin-4-yl)methyl)-3-fluoro-5-methylbenzamide]
- IC50 [1, 3]: 0.55 µM
- IC50 [2, 4]: 1.4 µM

SMILES: CC(C(=O)NC(C)(C)C)N1CCC(CNC(=O)c2cc(F)cc(Cl)c2)CC1 (stereo not shown) [Compound 546, N-((1-(1-(tert-butylamino)-1-oxo-propan-2-yl)piperidin-4-yl)methyl)-3-chloro-5-fluorobenzamide]
- IC50 [1, 3]: 0.13 µM
- IC50 [2, 4]: < 0.3 µM

SMILES: CC(C(=O)NC(C)(C)C(F)(F)F)N1CCC(CNC(=O)c2cc(F)cc(Cl)c2)CC1 (stereo not shown) [Compound 547, 3-chloro-5-fluoro-N-((1-(1-oxo-1-(1,1,1-trifluoro-2-methylpropan-2-ylamino)propan-2-yl)piperidin-4-yl)methyl)benzamide]
- IC50 [1, 3]: 0.03 µM
- IC50 [2, 4]: < 0.3 µM

SMILES: CC(C(=O)N1CCC[C@H]1C(F)(F)F)N1CCC(CNC(=O)c2cc(F)cc(Cl)c2)CC1 (stereo partly drawn) [Compound 548, 3-chloro-5-fluoro-N-((1-(1-oxo-1-((S)-2-(trifluoromethyl)pyrrolidin-1-yl)propan-2-yl)piperidin-4-yl)methyl)benzamide]
- IC50 [1, 3]: 0.16 µM
- IC50 [2, 4]: < 0.3 µM

SMILES: CC(C(=O)NC1CCCC1)N1CCC(CNC(=O)c2cc(F)cc(Cl)c2)CC1 (stereo not shown) [Compound 549, 3-chloro-N-((1-(1-(cyclopentylamino)-1-oxopropan-2-yl)piperidin-4-yl)methyl)-5-fluorobenzamide]
- IC50 [1, 3]: 0.11 µM
- IC50 [2, 4]: < 0.3 µM

SMILES: CC(C(=O)NC1(C)CCCCC1)N1CCC(CNC(=O)c2cc(F)cc(Cl)c2)CC1 (stereo not shown) [Compound 550, 3-chloro-5-fluoro-N-((1-(1-(1-methylcyclohexylamino)-1-oxopropan-2-yl)piperidin-4-yl)methyl)benzamide]
- IC50 [1, 3]: 0.02 µM
- IC50 [2, 4]: < 0.3 µM

SMILES: COCC(C)(C)NC(=O)C(C)N1CCC(CNC(=O)c2cc(F)cc(Cl)c2)CC1 (stereo not shown) [Compound 551, 3-chloro-5-fluoro-N-((1-(1-(1-methoxy-2-methylpropan-2-ylamino)-1-oxopropan-2-yl)piperidin-4-yl)methyl)benzamide]
- IC50 [1, 3]: 0.14 µM
- IC50 [2, 4]: 0.37 µM

SMILES: CC.CC(F)CNC(=O)CN1CCC(CNC(=O)c2cc(F)cc(Cl)c2)CC1 (stereo not shown) [Compound 553, 3-chloro-5-fluoro-N-((1-(2-(2-fluoropropylamino)-2-oxoethyl)piperidin-4-yl)methyl)benzamide compound with ethane (1:1)]
- IC50 [1]: 1.73 µM
- IC50 [2]: 2.52 µM

SMILES: CC(C)(F)CNC(=O)CN1CCC(CNC(=O)c2cccc(Cl)c2)CC1 [Compound 554, 3-chloro-N-((1-(2-(2-fluoro-2-methylpropylamino)-2-oxoethyl)piperidin-4-yl)methyl)benzamide]
- IC50 [1, 3]: > 10 µM
- IC50 [2, 4]: > 10 µM

SMILES: CC(C)(F)CNC(=O)CN1CCC(CNC(=O)c2cc(C(F)(F)F)cc(C(F)(F)F)c2)CC1 [Compound 555, N-((1-(2-(2-fluoro-2-methylpropyl-amino)-2-oxoethyl)piperidin-4-yl)methyl)-3,5-bis(trifluoromethyl) benzamide]
- IC50 [1, 3]: 0.89 µM
- IC50 [2, 4]: 0.53 µM

SMILES: CC(C)(F)CNC(=O)CN1CCC(CNC(=O)c2cc(F)cc(C(F)(F)F)c2)CC1 [Compound 556, 3-fluoro-N-((1-(2-(2-fluoro-2-methylpropylamino)-2-oxoethyl)piperidin-4-yl)methyl)-5-(trifluoromethyl)benzamide]
- IC50 [1, 3]: 1.77 µM
- IC50 [2, 4]: 1.37 µM

SMILES: COc1cc(F)cc(C(=O)NCC2CCN(CC(=O)NCC(C)(C)F)CC2)c1 [Compound 557, 3-fluoro-N-((1-(2-(2-fluoro-2-methylpropylamino)-2-oxoethyl)piperidin-4-yl)methyl)-5-methoxy-benzamide]
- IC50 [1, 3]: 1.31 µM
- IC50 [2, 4]: 3.58 µM

SMILES: CC(C(=O)N1CCC[C@@H]1C(F)(F)F)N1CCC(CNC(=O)c2cc(F)cc(Cl)c2)CC1 (stereo partly drawn) [Compound 558, 3-chloro-5-fluoro-N-((1-(1-oxo-1-((R)-2-(trifluoromethyl)pyrrolidin-1-yl)propan-2-yl)piperidin-4-yl)methyl) benzamide]
- IC50 [1, 3]: 0.46 µM
- IC50 [2, 4]: < 0.3 µM

SMILES: CC(C(=O)N1CCSC1)N1CCC(CNC(=O)c2cc(F)cc(Cl)c2)CC1 (stereo not shown) [Compound 559, 3-chloro-5-fluoro-N-((1-(1-oxo-1-(thiazolidin-3-yl)propan-2-yl)piperidin-4-yl)methyl)benzamide]
- IC50 [1, 3]: > 10 µM
- IC50 [2, 4]: 9.06 µM
